# Results: patent publication US10329309B2, “3-(3H-imidazo[4,5-B]pyridin-2-yl)-1H-pyrazolo[4,3-B]pyridines and therapeutic uses thereof” (Samumed, LLC, priority 2015, dated 2019)
# Assays:
# Format in all cases: cell-based
# IL-6 (THP-1 cells) = assay: Inhibition of IL-6 in LPS-stimulated THP-1 monocytes (HTRF); conditions: Homo sapiens; for EC50: LPS 500 ng/mL, IL-6 by HTRF; for inhibition at 10 µM: LPS stimulated, IL-6, at 10 μM, read-out: percent inhibition at 10 μM (given for EC50 of >10 μM)
# Procedure: Human monocyte cell line (THP-1 cells; Catalog # TIB-202, ATCC, Manassas, Va.) were cultured in Roswell Park Memorial Institute (RPMI) 1640 Medium (Catalog #21870-100, Buffalo, N.Y.) with 1% L-glutamine, 1% HEPES, 1% Sodium Pyruvate, 2% Sodium Bicarbonate supplemented with 100 units/mL penicillin, 50 μg/mL streptomycin, 2-mercaptoethanol (0.05 mM) [basal medium] and 10% fetal bovine serum (Catalog #16140089, Life Technologies, Carlsbad, Calif.) at 37° C. and 5% CO2.
# THP-1 cells were cultured in basal media with 1% FBS for 24 hours before the start of the assay. Each compound was dissolved in DMSO as a 10 mM stock and used to prepare compound source plates. Serial dilution (1:3, 10-point dose-response curves starting from 10 μM) and compound transfer was performed using the ECHO 550 (Labcyte, Sunnyvale, Calif.) into 384-well white low volume assay plates (Greiner Bio-One) with appropriate DMSO backfill for a final DMSO concentration of 0.1%. THP-1 cells were plated at 5000 cells/well in the 384-well plates and incubated at 37° C. for 2 h. 500 ng/mL of LPS was added after 2 hours and cells were incubated for another 22 hours at 37° C. Plates were spun in a centrifuge for 1 minute at […] and a mixture of anti-IL6 XL665, and anti-IL6 Cryptate diluted in reconstitution buffer (Cisbio Inc.) was added to each well. Following incubation for 3 hrs at room temperature, Homogeneous Time-Resolved Fluorescence (HTRF) was measured using the Envision (Perkin Elmer) at 665 nm and […]. The ratio of fluorescence at 665 nm to 620 nm was used as a readout for IL6 quantification. All samples were processed in duplicate. Readings were normalized to DMSO treated cells and normalized activities were utilized for EC50 calculations using the dose-response log (inhibitor) vs. response -variable slope (four parameters) nonlinear regression feature available in GraphPad Prism 5.0 (or Dotmatics). For EC50 of >10 μM, the percent inhibition at 10 μM is provided.
# SW480 colon cancer cells = assay: Cell viability assay (CellTiter-Blue), four days; conditions: Homo sapiens, 96 h; for EC50: CellTiter-Blue cell viability; for inhibition at 10 µM: read-out: percent inhibition at 10 μM (given for EC50 of >10 μM)
# Procedure: Representative compounds were screened using the following assay procedure to assess the effect on cell viability as described below.
# Each compound was dissolved in DMSO as a 10 mM stock and used to prepare compound source plates. Serial dilution (1:3, 8-point dose-response curves from 10 μM to 0.0045 μM) and compound transfer was performed using the ECHO 550 (Labcyte, Sunnyvale, Calif.) into 96-well clear bottom, black-walled plates (Corning-Costar).
# Approximately 2×10^3 SW480 colon cancer cells were seeded into each well and allowed to incubate in the presence or absence of compound for four days at 37° C./5% CO2. Eight replicates of DMSO-treated cells served as controls and cells treated with compound were performed in duplicate.
# After incubation, 20 μL of CellTiter-Blue (Promega) was added to each well allowed to incubate for approximately 3 hours. This reagent was a buffered solution which contains resazurin, metabolically active cells were able to reduce rezarurin (blue) into resorufin (pink) which was highly fluorescent. This measured fluorescence was used as a readout for cell viability.
# After incubation, the plates were read at Ex 560 nm Em 590 nm (Cytation 3, BioTek). Dose-response curves were generated and EC50 concentration values were calculated using non-linear regression curve fit in the GraphPad Prism (San Diego, Calif.) or Dotmatics' Studies Software (Bishops Stortford, UK). For EC50 of >10 μM, the percent inhibition at 10 μM is provided.
# [1] = system: primary human fibroblasts derived from IPF patients (LL29 cells), α-smooth muscle actin (αSMA); assay: Inhibition of the fibrotic process: TGF-β1-treated primary human fibroblasts from IPF patients, αSMA staining; conditions: Fibroblast, 96 h, 4 days; for EC50: LL29 fibroblasts from IPF patients, TGF-β1 20 ng/mL, inhibition of fibrotic process; for inhibition at 10 µM: LL29 fibroblasts, TGF-β1 treated, read-out: percent inhibition at 10 μM (given for EC50 of >10 μM)
# Excerpt: Representative compounds were screened using primary human fibroblasts (derived from IPF patients) treated with TGF-β1 to determine their ability to inhibit the fibrotic process.
# Primary human fibroblasts derived from IPF patients (LL29 cells) [^1Xiaoqiu Liu, et. al., “Fibrotic Lung Fibroblasts Show Blunted Inhibition by cAMP Due to Deficient cAMP Response Element-Binding Protein Phosphorylation”, Journal of Pharmacology and Experimental Therapeutics (2005), 315(2), 678-687; ^2Watts, K. L., et. al., “RhoA signaling modulates cyclin D1 expression in human lung fibroblasts; implications for idiopathic pulmonary fibrosis”, Respiratory Research (2006), 7(1), 88] were obtained from American Type Culture Collection (ATCC) and expanded in F12 medium supplemented with 15% Fetal Bovine Serum and Penicillin/Streptomycin.
# Each compound was dissolved in DMSO as a 10 mM stock and used to prepare compound source plates. Serial dilution (1:2, 11-point dose-response curves from 10 μM to 1.87 nM) and compound transfer was performed using the ECHO 550 (Labcyte, Sunnyvale, Calif.) into 384-well clear bottom assay plates (Greiner Bio-One) with appropriate DMSO backfill for a final DMSO concentration of 0.1%. LL29 cells are plated at 1,500 cells/well in 80 μL/well F12 medium supplemented with 1% Fetal Bovine Serum. One hour after addition of the cells, TGF-β1 (Peprotech; 20 ng/mL) was added to the plates to induce fibrosis (ref. 1 and 2 above). Wells treated with TGF-β1 and containing DMSO were used as controls. Cells were incubated at 37° C. and 5% CO2 for 4 days. Following incubation for 4 days, SYTOX green nucleic acid stain (Life Technologies [Thermo Fisher Scientific]) was added to the wells at a final concentration of 1 μM and incubated at room temperature for 30 min. Cells were then fixed using 4% formaldehyde (Electron Microscopy Sciences), washed 3 times with PBS followed by blocking and permeabilization using 3% Bovine Serum Albumin (BSA; Sigma) and 0.3% Triton X-100 (Sigma) in PBS. Cells were then stained with antibody specific to α-smooth muscle actin (αSMA; Abcam) (ref. 1 and 2 above) in 3% Bovine Serum Albumin (BSA; Sigma) and 0.3% Triton X-100 (Sigma) in PBS, and incubated overnight at 4° C. Cells were then washed 3 times with PBS, followed by incubation with Alexa Flor-647 conjugated secondary antibody (Life Technologies [Thermo Fisher Scientific]) and DAPI at room temperature for 1 hour. Cells were then washed 3 times with PBS and plates were sealed for imaging. αSMA staining was imaged by excitation at 630 nm and emission at 665 nm and quantified using the Compartmental Analysis program on the CellInsight CX5 (Thermo Scientific). Dead or apoptotic cells were excluded from analysis based on positive SYTOX green staining. % of total cells positive for αSMA were counted in each well and normalized to the average of 11 wells treated with TGF-β1 on the same plate using Dotmatics' Studies Software. The normalized averages (fold change over untreated) of 3 replicate wells for each compound concentration were used to create dose-responses curves and EC50 values were calculated using non-linear regression curve fit in the Dotmatics' Studies Software. For EC50 of >10 μM, the percent inhibition at 10 μM is provided.
SMILES,EC50 (IL-6 (THP-1 cells)),EC50 (SW480 colon cancer cells),inhibition at 10 µM (IL-6 (THP-1 cells)),inhibition at 10 µM (SW480 colon cancer cells),EC50 [1],inhibition at 10 µM [1]
"CCC(=O)Nc1cncc(-c2ccc3[nH]nc(-c4nc5c(-c6cccc(F)c6)ccnc5[nH]4)c3n2)c1 [Compound 1, N-(5-(3-(7-(3-fluorophenyl)-3H-imidazo[4,5-b]pyridin-2-yl)-1H-pyrazolo [4,3-b]pyridin-5-yl)pyridin-3-yl)propionamide]",> 10 µM,> 10 µM,3.5%,19.9%,> 10 µM,3%
"Fc1cccc(-c2ccnc3[nH]c(-c4n[nH]c5ccc(-c6ccncc6)nc45)nc23)c1 [Compound 18, 3-(7-(3-fluorophenyl)-3H-imidazo[4,5-b]pyridin-2-yl)-5-(pyridin-4-yl)-1H-pyrazolo[4,3-b]pyridine]",> 10 µM,> 10 µM,18.4%,0%,> 10 µM,21.4%
"O=C(Nc1cncc(-c2ccc3[nH]nc(-c4nc5c(-c6cccc(F)c6)ccnc5[nH]4)c3n2)c1)C1CC1 [Compound 20, N-(5-(3-(7-(3-Fluorophenyl)-3H-imidazo[4,5-b]pyridin-2-yl)-1H-pyrazolo [4,3-b]pyridin-5-yl)pyridin-3-yl)cyclopropanecarboxamide]",> 10 µM,> 10 µM,16%,2.8%,> 10 µM,20.2%
"Fc1cccc(-c2ccnc3[nH]c(-c4n[nH]c5ccc(-c6cncc(CN7CCC(F)(F)C7)c6)nc45)nc23)c1 [Compound 26, 5-(5-((3,3-Difluoropyrrolidin-1-yl)methyl)pyridin-3-yl)-3-(7-(3-fluorophenyl)-3H-imidazo[4,5-b]pyridin-2-yl)-1H-pyrazolo[4,3-b]pyridine]",0.985 µM,0.409 µM,–,–,0.344 µM,–
"CC(C)(C)C(=O)Nc1cncc(-c2ccc3[nH]nc(-c4nc5c(-c6ccc(F)cc6)ccnc5[nH]4)c3n2)c1 [Compound 36, N-(5-(3-(7-(4-fluorophenyl)-3H-imidazo[4,5-b]pyridin-2-yl)-1H-pyrazolo [4,3-b]pyridin-5-yl)pyridin-3-yl)pivalamide]",> 10 µM,> 10 µM,19.2%,15%,2.56 µM,–

# More lines, main results first:
EC50 (IL-6 (THP-1 cells)),EC50 (SW480 colon cancer cells),SMILES,inhibition at 10 µM (IL-6 (THP-1 cells)),inhibition at 10 µM (SW480 colon cancer cells),EC50 [1],inhibition at 10 µM [1]
> 10 µM,0.171 µM,"Fc1ccc(-c2ccnc3[nH]c(-c4n[nH]c5ccc(-c6cncnc6)nc45)nc23)cc1 [Compound 55, 3-(7-(4-Fluorophenyl)-3H-imidazo[4,5-b]pyridin-2-yl)-5-(pyrimidin-5-yl)-1H-pyrazolo[4,3-b]pyridine]",43.9%,–,0.063 µM,–
2.12 µM,> 10 µM,"Nc1cncc(-c2ccc3[nH]nc(-c4nc5c(-c6ccccc6F)ccnc5[nH]4)c3n2)c1 [Compound 59, 5-(3-(7-(2-fluorophenyl)-3H-imidazo[4,5-b]pyridin-2-yl)-1H-pyrazolo[4,3-b]pyridin-5-yl)pyridin-3-amine]",–,21.5%,2.41 µM,–
0.151 µM,> 10 µM,"CC(C)C(=O)Nc1cncc(-c2ccc3[nH]nc(-c4nc5c(-c6ccccc6F)ccnc5[nH]4)c3n2)c1 [Compound 65, N-(5-(3-(7-(2-fluorophenyl)-3H-imidazo[4,5-b]pyridin-2-yl)-1H-pyrazolo [4,3-b]pyridin-5-yl)pyridin-3-yl)isobutyramide]",–,7.5%,> 10 µM,0%
7.92 µM,> 10 µM,"O=C(Nc1cncc(-c2ccc3[nH]nc(-c4nc5c(-c6ccccc6F)ccnc5[nH]4)c3n2)c1)C1CCCC1 [Compound 78, N-(5-(3-(7-(2-fluorophenyl)-3H-imidazo[4,5-b]pyridin-2-yl)-1H-pyrazolo [4,3-b]pyridin-5-yl)pyridin-3-yl)cyclopentanecarboxamide]",–,12.3%,2.83 µM,–
0.984 µM,> 10 µM,"CC(C)C(=O)Nc1cncc(-c2ccc3[nH]nc(-c4nc5c(-c6cccnc6)ccnc5[nH]4)c3n2)c1 [Compound 93, N-(5-(3-(7-(pyridin-3-yl)-3H-imidazo[4,5-b]pyridin-2-yl)-1H-pyrazolo[4,3-b]pyridin-5-yl)pyridin-3-yl)isobutyramide]",–,8.1%,> 10 µM,0%
> 10 µM,> 10 µM,"Cc1ccncc1-c1ccc2[nH]nc(-c3nc4c(-c5ccncc5)ccnc4[nH]3)c2n1 [Compound 117, 5-(4-methylpyridin-3-yl)-3-(7-(pyridin-4-yl)-3H-imidazo[4,5-b]pyridin-2-yl)-1H-pyrazolo[4,3-b]pyridine]",18.6%,1.7%,> 10 µM,2.8%
> 10 µM,> 10 µM,"O=C(Cc1ccccc1)Nc1cncc(-c2ccc3[nH]nc(-c4nc5c(-c6ccncc6)ccnc5[nH]4)c3n2)c1 [Compound 122, 2-phenyl-N-(5-(3-(7-(pyridin-4-yl)-3H-imidazo[4,5-b]pyridin-2-yl)-1H-pyrazolo[4,3-b]pyridin-5-yl)pyridin-3-yl)acetamide]",27%,4.4%,> 10 µM,0%
